The results in this text go back to article PMC5336524 (Drug testing and analysis, 2016).

As a reminder, the IC50 is the concentration at which inhibition is half-maximal. By EC50 is commonly meant the concentration that produces a half-maximal response.

For data set [1], the target named is T1, dopamine transporters (DAT) (Rattus norvegicus, UniProt P23977). Description: [3H]dopamine uptake inhibition in rat brain synaptosomes. Type of data set: biochemical. The conditions noted are these: 5 nM [3H]dopamine, mean ± SD, n = 3, inactive = no inhibition at 10,000 nM; for IC50: [3H]DA uptake via DAT IC50, rat brain synaptosomes.
T1 sequence (P23977 whole entry): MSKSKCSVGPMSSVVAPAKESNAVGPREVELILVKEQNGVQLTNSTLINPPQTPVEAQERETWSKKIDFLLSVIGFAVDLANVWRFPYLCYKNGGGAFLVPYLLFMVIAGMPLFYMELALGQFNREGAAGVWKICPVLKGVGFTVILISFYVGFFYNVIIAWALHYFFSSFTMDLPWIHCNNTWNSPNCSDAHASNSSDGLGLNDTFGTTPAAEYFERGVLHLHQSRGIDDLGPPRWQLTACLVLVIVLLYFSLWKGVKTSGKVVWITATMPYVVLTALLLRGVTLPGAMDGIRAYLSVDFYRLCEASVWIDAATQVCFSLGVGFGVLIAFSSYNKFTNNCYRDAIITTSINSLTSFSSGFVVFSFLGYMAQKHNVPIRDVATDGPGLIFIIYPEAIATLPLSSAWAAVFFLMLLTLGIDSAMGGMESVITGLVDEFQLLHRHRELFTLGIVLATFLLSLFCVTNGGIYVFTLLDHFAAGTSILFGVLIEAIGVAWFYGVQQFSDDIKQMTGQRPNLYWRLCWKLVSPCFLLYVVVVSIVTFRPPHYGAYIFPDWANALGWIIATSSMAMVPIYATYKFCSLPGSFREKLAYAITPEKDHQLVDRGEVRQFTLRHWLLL
In data set [2] the target is serotonin transporters (SERT) (Rattus norvegicus, UniProt P31652). The data set can be described thus: [3H]serotonin uptake inhibition in rat brain synaptosomes. It counts as biochemical.
Chain of serotonin transporters (SERT) (P31652 whole entry): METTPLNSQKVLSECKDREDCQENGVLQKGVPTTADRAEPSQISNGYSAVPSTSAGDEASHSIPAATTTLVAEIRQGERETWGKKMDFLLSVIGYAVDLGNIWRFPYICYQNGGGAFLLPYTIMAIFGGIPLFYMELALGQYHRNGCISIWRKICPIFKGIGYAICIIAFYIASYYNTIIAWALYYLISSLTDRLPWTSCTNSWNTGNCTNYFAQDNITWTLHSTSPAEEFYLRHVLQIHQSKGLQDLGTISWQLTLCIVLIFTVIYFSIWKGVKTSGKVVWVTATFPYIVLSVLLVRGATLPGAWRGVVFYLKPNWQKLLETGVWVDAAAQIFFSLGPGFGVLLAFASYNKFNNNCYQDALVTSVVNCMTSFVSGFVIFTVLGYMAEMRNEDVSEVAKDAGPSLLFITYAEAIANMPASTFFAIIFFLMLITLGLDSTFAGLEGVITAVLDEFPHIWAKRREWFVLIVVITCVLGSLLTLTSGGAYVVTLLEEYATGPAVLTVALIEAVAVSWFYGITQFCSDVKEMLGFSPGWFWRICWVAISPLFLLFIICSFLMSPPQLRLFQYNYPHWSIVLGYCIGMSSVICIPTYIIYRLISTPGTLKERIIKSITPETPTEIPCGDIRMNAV
Data set [3] has as its target T2, norepinephrine transporters (NET) (Rattus norvegicus, UniProt Q63380). Description: [3H]MPP+ release via NET from rat brain synaptosomes. The conditions noted are these: for [3H]MPP+ release via NET EC50: rat brain synaptosomes, 9 nM [3H]MPP+, mean ± SD, n = 3, inactive = efficacy less than 33% of maximal release. Type of data set: biochemical.
Data set [4] deals with T1, dopamine transporters (DAT). The data set can be described thus: [3H]MPP+ release via DAT from rat brain synaptosomes. It counts as biochemical. The conditions noted are these: for [3H]MPP+ release via DAT EC50: rat brain synaptosomes, 9 nM [3H]MPP+, mean ± SD, n = 3, inactive = efficacy less than 33% of maximal release.
A further data set addresses 5-HT transporters (SERT) (Rattus norvegicus, UniProt P31652). Description: [3H]5-HT release via SERT from rat brain synaptosomes. It counts as biochemical.
The target in data set [5] is T2, norepinephrine transporters (NET). The data set can be described thus: [3H]norepinephrine uptake inhibition in rat brain synaptosomes. Type of data set: biochemical.
Data set [6] in a line: Stability of N-methoxymephedrone. It counts as physicochemical. The conditions noted are these: solid; over time converts from a colourless solid to a brown solid; hygroscopic.
Setting [7] is: [3H]5-HT release via SERT EC50, rat brain synaptosomes, 5 nM [3H]5-HT, mean ± SD, n = 3, inactive = efficacy less than 33% of maximal release.
Setting [8] is: ratio of uptake IC50 values versus mexedrone.

Where two headings read alike, the source gives them in different places.

Chain of 5-HT transporters (SERT) (P31652 whole entry): as above
T2 sequence (Q63380 1-617): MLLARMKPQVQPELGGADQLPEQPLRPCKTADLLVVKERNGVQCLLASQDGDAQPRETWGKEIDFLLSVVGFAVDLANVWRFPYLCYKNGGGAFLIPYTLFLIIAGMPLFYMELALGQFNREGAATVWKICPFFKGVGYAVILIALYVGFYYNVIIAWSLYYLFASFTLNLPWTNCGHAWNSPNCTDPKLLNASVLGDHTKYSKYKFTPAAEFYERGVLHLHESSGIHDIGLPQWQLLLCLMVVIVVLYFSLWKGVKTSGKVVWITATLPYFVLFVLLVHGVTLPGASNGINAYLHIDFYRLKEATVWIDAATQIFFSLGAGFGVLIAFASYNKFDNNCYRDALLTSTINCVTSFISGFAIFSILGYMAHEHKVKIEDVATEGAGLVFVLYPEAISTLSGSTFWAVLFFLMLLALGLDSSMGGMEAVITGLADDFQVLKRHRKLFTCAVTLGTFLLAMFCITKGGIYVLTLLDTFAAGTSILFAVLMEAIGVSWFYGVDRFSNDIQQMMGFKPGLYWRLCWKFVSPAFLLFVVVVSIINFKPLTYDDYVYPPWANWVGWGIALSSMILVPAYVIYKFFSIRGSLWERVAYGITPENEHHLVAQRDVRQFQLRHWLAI

With `CNC(COC)C(=O)c1ccc(C)cc1` (stereo not shown) [Mexedrone, 3-Methoxy-2-(methylamino)-1-(4-methylphenyl)propan-1-one], the values for the IC50 in data set [1], in data set [2] and in data set [5] were 6840 ± 1520 nM, 5290 ± 1620 nM and 8870 ± 3100 nM, respectively. For the same compound, the “[3H]MPP+ release via NET EC50” value in data set [3] is “inactive”. Moreover, the “[3H]MPP+ release via DAT EC50” value in data set [4] is “inactive”. The concentration giving a half-maximal response (EC50) at 5-HT transporters (SERT) (setting [7]) is 2520 ± 560 nM; on 5-HT transporters (SERT) (releasing activity at SERT EC50, rat brain synaptosomes), 2500 nM.

On to `CON(C)C(C)C(=O)c1ccc(C)cc1` (stereo not shown) [N-Methoxymephedrone, 2-(Methoxy(methyl)amino)-1-(4-methylphenyl)propan-1-one], for which, in data set [6], the “stability in crystalline form” value was “unstable”. The values for the IC50 in data set [1], in data set [2] and in data set [5] were 6090 ± 1620 nM, 3330 ± 1130 nM and 3460 ± 728 nM, respectively. For the same compound, the “fold more potent than mexedrone at SERT (uptake inhibition)” value in data set [2] (setting [8]) was 1.6 fold. Further, the EC50 in data set [3] was 313 ± 51 nM; in data set [4], 666 ± 132 nM; on 5-HT transporters (SERT), 1040 ± 271 nM. In data set [5] (setting [8]), the “fold more potent than mexedrone at NET (uptake inhibition)” value was determined as 2.6 fold.

For `CNC(CCl)C(=O)c1ccc(C)cc1` (stereo not drawn) [α-Chloromethylmephedrone, 3-chloro-2-(methylamino)-1-(4-methylphenyl)propan-1-one], the “[3H]DA uptake via DAT IC50” value in data set [1] (rat brain synaptosomes) is “inactive”. Further, the “[3H]5-HT uptake via SERT IC50” value in data set [2] (rat brain synaptosomes, 5 nM [3H]serotonin, mean ± SD, n = 3, inactive = no inhibition at 10,000 nM) is “inactive”. For the same compound, the “[3H]MPP+ release via NET EC50” value in data set [3] is “inactive”. The “[3H]MPP+ release via DAT EC50” value in data set [4] is “inactive”. Also, the “[3H]5-HT release via SERT EC50” value at 5-HT transporters (SERT) (rat brain synaptosomes, 5 nM [3H]5-HT, mean ± SD, n = 3, inactive = efficacy less than 33% of maximal release) was “inactive”. In addition, the “[3H]NE uptake via NET IC50” value in data set [5] (rat brain synaptosomes, 10 nM [3H]norepinephrine, mean ± SD, n = 3, inactive = no inhibition at 10,000 nM) was “inactive”.

Turning to `CNC(C)C(=O)c1ccc(C)cc1` (stereo not shown) [Mephedrone, 2-(methylamino)-1-(4-methylphenyl)propan-1-one, reference compound], the IC50 in data set [1] stood at 1060 ± 85 nM; in data set [2], 470 ± 7.6 nM; in data set [5], 494 ± 93 nM. The EC50 in data set [3] worked out at 58 ± 7 nM; in data set [4], 45 ± 6 nM; at 5-HT transporters (SERT) (setting [7]), 163 ± 30 nM.
